Data as given in ChEMBL document CHEMBL1201862, “PubChem BioAssay data set” (2004).
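Tested at 5 concentrations; 48 h exposure; 96-well plates; endpoints linearly interpolated, else capped at highest concentration. GI50 marks 50% less growth.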 The source made the active and inactive calls. Cut-off read from the data, not from the text of the source: active = GI50 up to about 1.1 µM and inactive = higher.

Assays:
Assay in all cases: NCI tumour cell line growth inhibition, 48 h
HOP-92 = tested on: HOP-92
NCI-H226 = tested on: NCI-H226
UACC-62 = tested on: UACC-62
LOX IMVI = tested on: LOX IMVI
EKVX = tested on: EKVX
SNB-19 = tested on: SNB-19
SK-MEL-5 = tested on: SK-MEL-5
NCI-H460 = tested on: NCI-H460
SW-620 = tested on: SW-620
T47D = tested on: T47D
MDA-MB-231 = tested on: MDA-MB-231
SF-268 = tested on: SF-268
RXF 393 = tested on: RXF 393
UO-31 = tested on: UO-31
CAKI-1 = tested on: CAKI-1
SN12C = tested on: SN12C
PC-3 = tested on: PC-3
MDA-N = tested on: MDA-N
DU-145 = tested on: DU-145
OVCAR-4 = tested on: OVCAR-4
Malme-3M = tested on: Malme-3M
M14 = tested on: M14
UACC-257 = tested on: UACC-257
NCI-H522 = tested on: NCI-H522
HL-60 = tested on: HL-60
786-0 = tested on: 786-0
NCI/ADR-RES = tested on: NCI/ADR-RES
K562 = tested on: K562
OVCAR-5 = tested on: OVCAR-5
CCRF-CEM = tested on: CCRF-CEM
SNB-75 = tested on: SNB-75
OVCAR-8 = tested on: OVCAR-8
SF-539 = tested on: SF-539
HCT-15 = tested on: HCT-15
HOP-62 = tested on: HOP-62
OVCAR-3 = tested on: OVCAR-3
HCC 2998 = tested on: HCC 2998
BT-549 = tested on: BT-549
HT-29 = tested on: HT-29
MOLT-4 = tested on: MOLT-4
ACHN = tested on: ACHN
SF-295 = tested on: SF-295
SR = tested on: SR
COLO 205 = tested on: COLO 205
U-251 = tested on: U-251
SK-MEL-28 = tested on: SK-MEL-28
RPMI-8226 = tested on: RPMI-8226
HCT-116 = tested on: HCT-116
Hs-578T = tested on: Hs-578T
A498 = tested on: A498
MCF7 = tested on: MCF7
MDA-MB-435 = tested on: MDA-MB-435
KM12 = tested on: KM12
NCI-H23 = tested on: NCI-H23
SK-MEL-2 = tested on: SK-MEL-2
A549 = tested on: A549
IGROV-1 = tested on: IGROV-1
TK-10 = tested on: TK-10
SK-OV-3 = tested on: SK-OV-3

Compound: CCOC(=O)COc1ccc2c(C)cc(=O)oc2c1
- GI50 (HOP-92): > 100 µM (inactive)
- GI50 (NCI-H226): > 100 µM (inactive)
- GI50 (UACC-62): > 100 µM (inactive)
- GI50 (LOX IMVI): > 100 µM (inactive)
- GI50 (EKVX): > 100 µM (inactive)
- GI50 (SNB-19): > 100 µM (inactive)
- GI50 (SK-MEL-5): > 100 µM (inactive)
- GI50 (NCI-H460): 45.8 µM (inactive)
- GI50 (SW-620): > 100 µM (inactive)
- GI50 (T47D): > 100 µM (inactive)
- GI50 (MDA-MB-231): > 100 µM (inactive)
- GI50 (SF-268): > 100 µM (inactive)
- GI50 (RXF 393): > 100 µM (inactive)
- GI50 (UO-31): > 100 µM (inactive)
- GI50 (CAKI-1): > 100 µM (inactive)
- GI50 (SN12C): > 100 µM (inactive)
- GI50 (PC-3): > 100 µM (inactive)
- GI50 (MDA-N): > 100 µM (inactive)
- GI50 (DU-145): > 100 µM (inactive)
- GI50 (OVCAR-4): > 100 µM (inactive)
- GI50 (Malme-3M): > 100 µM (inactive)
- GI50 (M14): > 100 µM (inactive)
- GI50 (UACC-257): > 100 µM (inactive)
- GI50 (NCI-H522): > 100 µM (inactive)
- GI50 (HL-60): > 100 µM (inactive)
- GI50 (786-0): > 100 µM (inactive)
- GI50 (NCI/ADR-RES): > 100 µM (inactive)
- GI50 (K562): > 100 µM (inactive)
- GI50 (OVCAR-5): > 100 µM (inactive)
- GI50 (CCRF-CEM): > 100 µM (inactive)
- GI50 (SNB-75): > 100 µM (inactive)
- GI50 (OVCAR-8): > 100 µM (inactive)
- GI50 (SF-539): > 100 µM (inactive)
- GI50 (HCT-15): > 100 µM
- GI50 (HOP-62): > 100 µM (inactive)
- GI50 (OVCAR-3): > 100 µM (inactive)
- GI50 (HCC 2998): 34.4 µM (inactive)
- GI50 (BT-549): > 100 µM (inactive)
- GI50 (HT-29): > 100 µM (inactive)
- GI50 (MOLT-4): > 100 µM (inactive)
- GI50 (ACHN): > 100 µM (inactive)
- GI50 (SF-295): > 100 µM (inactive)
- GI50 (SR): > 100 µM (inactive)
- GI50 (COLO 205): > 100 µM (inactive)
- GI50 (U-251): > 100 µM (inactive)
- GI50 (SK-MEL-28): > 100 µM (inactive)
- GI50 (RPMI-8226): > 100 µM (inactive)
- GI50 (HCT-116): > 100 µM (inactive)
- GI50 (Hs-578T): > 100 µM (inactive)
- GI50 (A498): > 100 µM (inactive)
- GI50 (MCF7): > 100 µM (inactive)
- GI50 (MDA-MB-435): > 100 µM (inactive)
- GI50 (KM12): > 100 µM (inactive)
- GI50 (NCI-H23): > 100 µM (inactive)
- GI50 (SK-MEL-2): > 100 µM (inactive)
- GI50 (A549): > 100 µM (inactive)
- GI50 (IGROV-1): > 100 µM (inactive)

Compound: O/N=C\c1cc(O)c(O)c(/C=N/O)c1
- GI50 (HOP-92): 49.9 µM (inactive)
- GI50 (NCI-H226): 32.9 µM (inactive)
- GI50 (UACC-62): 38.5 µM (inactive)
- GI50 (LOX IMVI): 47.8 µM (inactive)
- GI50 (EKVX): 34.8 µM (inactive)
- GI50 (SNB-19): 89.5 µM (inactive)
- GI50 (SK-MEL-5): 33.2 µM (inactive)
- GI50 (TK-10): 63.4 µM (inactive)
- GI50 (NCI-H460): 27.9 µM (inactive)
- GI50 (SW-620): 39.9 µM (inactive)
- GI50 (T47D): 36.1 µM (inactive)
- GI50 (MDA-MB-231): 56.5 µM (inactive)
- GI50 (SF-268): 15.2 µM (inactive)
- GI50 (RXF 393): 25.6 µM (inactive)
- GI50 (UO-31): 16 µM (inactive)
- GI50 (CAKI-1): 28.6 µM (inactive)
- GI50 (SN12C): 27.2 µM (inactive)
- GI50 (SK-OV-3): 33.7 µM (inactive)
- GI50 (PC-3): 33.3 µM (inactive)
- GI50 (MDA-N): 47.9 µM (inactive)
- GI50 (DU-145): 31.6 µM (inactive)
- GI50 (OVCAR-4): 52 µM (inactive)
- GI50 (Malme-3M): > 100 µM (inactive)
- GI50 (M14): 27.5 µM (inactive)
- GI50 (UACC-257): > 100 µM (inactive)
- GI50 (NCI-H522): 8.73 µM (inactive)
- GI50 (HL-60): 14.1 µM (inactive)
- GI50 (NCI/ADR-RES): 32 µM (inactive)
- GI50 (K562): 36 µM (inactive)
- GI50 (OVCAR-5): 96.2 µM (inactive)
- GI50 (CCRF-CEM): 7.66 µM (inactive)
- GI50 (SNB-75): > 100 µM (inactive)
- GI50 (OVCAR-8): 29 µM (inactive)
- GI50 (SF-539): 34.4 µM (inactive)
- GI50 (HCT-15): 34.9 µM
- GI50 (HOP-62): 29.4 µM (inactive)
- GI50 (OVCAR-3): 20.6 µM (inactive)
- GI50 (BT-549): 79.1 µM (inactive)
- GI50 (HT-29): 59.3 µM (inactive)
- GI50 (MOLT-4): 21.4 µM (inactive)
- GI50 (ACHN): 24.2 µM (inactive)
- GI50 (SF-295): 55.1 µM (inactive)
- GI50 (SR): 11 µM (inactive)
- GI50 (COLO 205): 34.4 µM (inactive)
- GI50 (U-251): 39 µM (inactive)
- GI50 (SK-MEL-28): > 100 µM (inactive)
- GI50 (RPMI-8226): 11.8 µM (inactive)
- GI50 (HCT-116): 33.8 µM (inactive)
- GI50 (Hs-578T): 23.9 µM (inactive)
- GI50 (A498): 69.3 µM (inactive)
- GI50 (MCF7): 35.5 µM (inactive)
- GI50 (MDA-MB-435): 38.8 µM (inactive)
- GI50 (KM12): 38.4 µM (inactive)
- GI50 (NCI-H23): 71 µM (inactive)
- GI50 (SK-MEL-2): 67.9 µM (inactive)
- GI50 (A549): 25.2 µM (inactive)
- GI50 (IGROV-1): 41.4 µM (inactive)
